Data published in US9005937B2, “Dual cofactor specific ribitol dehydrogenase and use thereof” (Konkuk University Industrial Cooperation Corp., priority 2011, dated 2015).
Read-outs that look alike come from different tables or passages of the source.

Experiments:
[1] = target: T1, Zymomonas mobilis ribitol dehydrogenase (SEQ ID NO: 4) variant S156Y (Zymomonas mobilis, UniProt Q5NQS1, S229Y); test: Dynamical parameters to coenzyme, variant S156Y; assay type: biochemical
T1 sequence (Q5NQS1 74-338 S229Y): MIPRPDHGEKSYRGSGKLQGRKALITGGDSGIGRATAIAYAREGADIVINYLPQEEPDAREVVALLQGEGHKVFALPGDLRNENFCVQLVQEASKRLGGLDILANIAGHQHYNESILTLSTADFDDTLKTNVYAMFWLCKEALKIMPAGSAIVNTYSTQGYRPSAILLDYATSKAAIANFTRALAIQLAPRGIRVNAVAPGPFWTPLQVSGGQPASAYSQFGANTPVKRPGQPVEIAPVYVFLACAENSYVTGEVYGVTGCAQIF
Text: (§1) There were no differences between the expression amount of various amino acid variants of Ser 156 and the expression amount of wide-type. The dynamical parameter of each of variants was confirmed using the above variants.

[2] = target: T2, Zymomonas mobilis ribitol dehydrogenase (SEQ ID NO: 4) variant S156D, SEQ ID NO: 5 (Zymomonas mobilis, UniProt Q5NQS1, N321D/S229D); test: Dynamical parameters to coenzyme, variant S156D; assay type: biochemical
T2 sequence (Q5NQS1 74-338 S229D/N321D): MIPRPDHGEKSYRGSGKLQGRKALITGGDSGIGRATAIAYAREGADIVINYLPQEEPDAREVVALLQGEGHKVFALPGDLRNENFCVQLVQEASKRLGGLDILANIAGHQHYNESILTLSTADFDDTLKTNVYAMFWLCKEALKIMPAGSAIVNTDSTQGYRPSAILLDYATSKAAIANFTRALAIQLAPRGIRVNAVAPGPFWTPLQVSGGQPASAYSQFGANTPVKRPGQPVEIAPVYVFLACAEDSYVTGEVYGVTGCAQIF
Text: In addition, the present invention provides a ribitol dehydrogenase mutant selected from the group consisting of a) a mutant, in which serine, an amino acid at position 156 of the ribitol dehydrogenase having an amino acid sequence as set forth in SEQ ID NO: 4 is substituted with aspartic acid; and b) a mutant, in which tyrosine, an amino acid at position 51 of the ribitol dehydrogenase having an amino acid sequence as set forth in SEQ ID NO: 4 is substituted with aspartic acid and serine, an amino acid at position 156 is substituted with alanine.
The mutants have preferably amino acid sequences as set forth in SEQ ID NOS: 5 and 6, respectively, but the present invention is not limited thereto.
as §1

[3] = target: T3, Zymomonas mobilis ribitol dehydrogenase (SEQ ID NO: 4) variant S156C (Zymomonas mobilis, UniProt Q5NQS1, S229C); test: Dynamical parameters to coenzyme, variant S156C; assay type: biochemical
T3 sequence (Q5NQS1 74-338 S229C): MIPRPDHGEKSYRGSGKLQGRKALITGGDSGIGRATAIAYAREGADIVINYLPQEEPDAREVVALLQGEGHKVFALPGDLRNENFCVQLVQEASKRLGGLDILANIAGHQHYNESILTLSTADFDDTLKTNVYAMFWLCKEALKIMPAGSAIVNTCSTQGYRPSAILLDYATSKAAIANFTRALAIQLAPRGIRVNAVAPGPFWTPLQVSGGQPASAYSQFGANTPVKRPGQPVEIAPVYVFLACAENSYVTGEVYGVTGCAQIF
Text: as §1

[4] = target: T4, Zymomonas mobilis ribitol dehydrogenase (SEQ ID NO: 4) variant S156E (Zymomonas mobilis, UniProt Q5NQS1, S229E); test: Dynamical parameters to coenzyme, variant S156E; assay type: biochemical
T4 sequence (Q5NQS1 74-338 S229E): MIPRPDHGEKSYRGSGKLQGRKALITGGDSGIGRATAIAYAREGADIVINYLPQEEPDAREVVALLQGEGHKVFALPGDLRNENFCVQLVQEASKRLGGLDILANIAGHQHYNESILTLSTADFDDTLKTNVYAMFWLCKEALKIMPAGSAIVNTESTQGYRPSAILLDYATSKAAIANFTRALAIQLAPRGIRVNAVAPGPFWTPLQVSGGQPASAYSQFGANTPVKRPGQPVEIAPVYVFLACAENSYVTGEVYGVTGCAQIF
Text: as §1

[5] = target: T5, Zymomonas mobilis ribitol dehydrogenase, wild-type, SEQ ID NO: 4 (Zymomonas mobilis, UniProt Q5NQS1); test: Dynamical (kinetic) parameters of ribitol dehydrogenase to coenzyme NAD(H)/NADP(H), wild-type; assay type: biochemical
T5 sequence (Q5NQS1 74-338): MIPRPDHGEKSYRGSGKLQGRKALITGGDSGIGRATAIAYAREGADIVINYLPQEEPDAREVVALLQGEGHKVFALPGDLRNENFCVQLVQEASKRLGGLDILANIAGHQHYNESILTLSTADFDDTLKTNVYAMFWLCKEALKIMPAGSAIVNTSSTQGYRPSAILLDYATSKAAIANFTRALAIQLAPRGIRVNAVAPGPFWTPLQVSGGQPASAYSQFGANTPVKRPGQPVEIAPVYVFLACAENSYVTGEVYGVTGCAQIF
Procedure: (§2) The optimum pH on dehydrogenation activity of the ribitol dehydrogenase was measured using 20 mM of Tris-HCl buffer. The enzyme activity was determined by monitoring the change per minute in absorbance at 340 nm while the sample was reacted in the presence of NAD(H) and ribitol.
Then, dynamical parameters were measured through a nonlinear regression analysis.

[6] = target: T6, Zymomonas mobilis ribitol dehydrogenase (SEQ ID NO: 4) variant S156T (Zymomonas mobilis, UniProt Q5NQS1, S229T); test: Dynamical parameters to coenzyme, variant S156T; assay type: biochemical
T6 sequence (Q5NQS1 74-338 S229T): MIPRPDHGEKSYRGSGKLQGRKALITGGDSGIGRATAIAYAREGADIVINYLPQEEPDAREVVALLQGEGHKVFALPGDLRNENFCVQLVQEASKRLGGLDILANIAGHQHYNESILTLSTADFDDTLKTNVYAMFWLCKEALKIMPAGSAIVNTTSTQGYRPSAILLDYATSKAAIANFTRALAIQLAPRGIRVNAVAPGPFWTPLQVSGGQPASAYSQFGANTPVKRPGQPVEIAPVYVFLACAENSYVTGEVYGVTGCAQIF
Text: as §1

[7] = target: T7, Zymomonas mobilis ribitol dehydrogenase (SEQ ID NO: 4) variant S156W (Zymomonas mobilis, UniProt Q5NQS1, S229W); test: Dynamical parameters to coenzyme, variant S156W; assay type: biochemical
T7 sequence (Q5NQS1 74-338 S229W): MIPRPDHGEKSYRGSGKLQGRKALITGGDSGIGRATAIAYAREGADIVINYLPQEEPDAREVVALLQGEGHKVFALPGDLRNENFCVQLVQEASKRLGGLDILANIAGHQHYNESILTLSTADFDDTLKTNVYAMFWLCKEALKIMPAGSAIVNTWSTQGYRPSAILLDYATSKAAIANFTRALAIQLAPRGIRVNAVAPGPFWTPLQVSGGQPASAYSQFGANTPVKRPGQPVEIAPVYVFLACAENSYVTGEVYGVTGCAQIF
Text: as §1

[8] = target: T8, Zymomonas mobilis ribitol dehydrogenase (SEQ ID NO: 4) variant S156A (Zymomonas mobilis, UniProt Q5NQS1, S229A); test: Dynamical parameters to coenzyme, variant S156A; assay type: biochemical
T8 sequence (Q5NQS1 74-338 S229A): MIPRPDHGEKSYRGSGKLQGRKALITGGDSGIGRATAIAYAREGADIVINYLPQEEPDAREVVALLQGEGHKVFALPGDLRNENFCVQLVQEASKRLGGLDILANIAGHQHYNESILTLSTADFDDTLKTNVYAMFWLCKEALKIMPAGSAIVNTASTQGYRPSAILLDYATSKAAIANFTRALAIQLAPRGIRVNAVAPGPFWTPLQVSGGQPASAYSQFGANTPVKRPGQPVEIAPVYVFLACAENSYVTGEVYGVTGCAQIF
Text: as §1

[9] = target: T9, Zymomonas mobilis ribitol dehydrogenase (SEQ ID NO: 4) variant S156G (Zymomonas mobilis, UniProt Q5NQS1, S229G); test: Dynamical parameters to coenzyme, variant S156G; assay type: biochemical
T9 sequence (Q5NQS1 74-338 S229G): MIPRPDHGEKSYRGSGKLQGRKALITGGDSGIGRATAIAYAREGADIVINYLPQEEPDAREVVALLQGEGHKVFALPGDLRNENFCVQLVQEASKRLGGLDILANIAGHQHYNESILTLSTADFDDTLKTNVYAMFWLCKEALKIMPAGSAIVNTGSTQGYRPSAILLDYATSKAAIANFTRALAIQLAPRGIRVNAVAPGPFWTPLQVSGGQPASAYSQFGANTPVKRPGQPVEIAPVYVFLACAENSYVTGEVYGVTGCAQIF
Text: as §1

[10] = substrate: NC(=O)c1ccc[n+]([C@@H]2O[C@H](COP(=O)(O)OP(=O)(O)OC[C@H]3O[C@@H](n4cnc5c(N)ncnc54)[C@H](OP(=O)(O)O)[C@@H]3O)[C@@H](O)[C@H]2O)c1; test: purified protein, by the assay type; settings: ribitol, wild-type, pH 9.0
[11] = coenzyme NAD(H)
Procedure: as §2

[12] = Production of L-ribulose from ribitol with cell bodies of recombinant strains expressing the variants; assay type: cell-based, E. coli; settings: whole cells; 20 mM Tris-HCl buffer pH 9.5; 25° C.; 6 hours; HPLC
Procedure: The following experiments were performed in order to produce L-ribulose using a ribitol dehydrogenase variant having double coenzyme specificity. The variants prepared by using the method of Example 5-3 were expressed using the method of Example 2; the cell bodies were only collected by centrifuging (8000×g for 10 minutes) the recombinant strain culture solution; and then the cell bodies were washed with distilled water twice. The final Cell OD was measured and the same amount of cells was used for a production experiment. The ribitol and each of recombinant enzyme variants were subjected to an enzyme reaction in 20 mM of Tris-HCl buffer (pH 9.5) at a temperature of 25° C. for 6 hours.

[13] = coenzyme NADP(H)
Procedure: as §2

[14] = Optimum pH on dehydrogenation activity of the ribitol dehydrogenase; assay type: biochemical; settings: 20 mM Tris-HCl buffer; NAD(H) and ribitol; absorbance at 340 nm
Text: Physicochemical properties of the ribitol dehydrogenase isolated in Example 4 were investigated using ribitol as a substrate.

[15] = read-out: Km, NAD, NAD 0.01 to 3 mM
[16] = other: NADP(H) 0.1 to 2 mM, 20 mM Tris-HCl, 340 nm

NC(=O)c1ccc[n+]([C@@H]2O[C@H](COP(=O)(O)OP(=O)(O)OC[C@H]3O[C@@H](n4cnc5c(N)ncnc54)[C@H](O)[C@@H]3O)[C@@H](O)[C@H]2O)c1 [NAD^+, nicotinamide adenine dinucleotide]
kcat (NAD^+) ([1]; NAD 0.01 to 3 mM): 1.60 ± 0.13 s⁻¹ | Km [1, 15]: 150 ± 10 µM | kcat (NAD^+) ([2]; NAD 0.01 to 3 mM): 1.79 ± 0.01 s⁻¹ | Km [2, 15]: 20 ± 2 µM | kcat (NAD^+) ([3]; NAD 0.01 to 3 mM): 2.00 ± 0.09 s⁻¹ | Km [3, 15]: 100 ± 20 µM | kcat (NAD^+) ([4]; NAD 0.01 to 3 mM): 2.06 ± 0.07 s⁻¹ | Km [4, 15]: 50 ± 3 µM | kcat (NAD^+) ([5]; NAD 0.01 to 3 mM): 4.83 ± 0.51 s⁻¹ | kcat (NAD(H)) ([5]; NAD(H) 0.1 to 2 mM, 20 mM Tris-HCl, 340 nm): about 4.84 s^−1 | Km [5, 15]: 180 ± 20 µM | Km ([5]; read-out: Km, NAD, NAD(H) 0.1 to 2 mM, 20 mM Tris-HCl, 340 nm): ~180 µM | kcat (NAD^+) ([6]; NAD 0.01 to 3 mM): 2.85 ± 0.10 s⁻¹ | Km [6, 15]: 210 ± 60 µM | kcat (NAD^+) ([7]; NAD 0.01 to 3 mM): 2.62 ± 0.11 s⁻¹ | Km [7, 15]: 160 ± 20 µM | kcat (NAD^+) ([8]; NAD 0.01 to 3 mM): 1.93 ± 0.16 s⁻¹ | Km [8, 15]: 190 ± 20 µM | kcat (NAD^+) ([9]; NAD 0.01 to 3 mM): 1.04 ± 0.02 s⁻¹ | Km [9, 15]: 140 ± 10 µM

B1: Zymomonas mobilis ribitol dehydrogenase, wild-type, SEQ ID NO: 4 (Zymomonas mobilis subsp. mobilis ZM4 = ATCC 31821) (protein)
chain: MIPRPDHGEKSYRGSGKLQGRKALITGGDSGIGRATAIAYAREGADIVINYLPQEEPDAREVVALLQGEGHKVFALPGDLRNENFCVQLVQEASKRLGGLDILANIAGHQHYNESILTLSTADFDDTLKTNVYAMFWLCKEALKIMPAGSAIVNTSSTQGYRPSAILLDYATSKAAIANFTRALAIQLAPRGIRVNAVAPGPFWTPLQVSGGQPASAYSQFGANTPVKRPGQPVEIAPVYVFLACAENSYVTGEVYGVTGCAQIF
Km ([10]; other: NADP 0.01 to 3 mM): 260 ± 20 µM | kcat ([10]; other: NADP 0.01 to 3 mM): 2.79 s⁻¹ | kcat/Km ([10]; other: NADP 0.01 to 3 mM): 10800 M⁻¹ s⁻¹ | Km [10, 16]: 260 µM | kcat [10, 16]: 2.79 s⁻¹ | Relative activity (%), NAD(H) [11]: 100% | L-ribulose produced, concentration [12]: 0.80 g/L | Relative activity (%), NADP(H) [13]: 42.9% | optimum pH [14]: 9.5
